Reference: patent US5834288A, “KDN-specific deminoneuraminidase from Sphingobacterium multivorum” (Seikagaku Corporation, priority 1994, dated 1998)
“Also recorded” adds a separate entry of the source. Read-outs that look alike come from different tables or passages of the source.

Columns and labels:
[1] = system: enzyme of the present invention (KDNase); assay: Inhibition and activation of the enzyme, 4-MU-KDN method; assay type: biochemical, Sphingobacterium mOL12-4s; settings: for effect on the activity of the enzyme: added at 1 mM
Description: Specifically, 1.4 nmol of 4-MU-KDN was added to an enzyme solution prepared by dissolving the enzyme in 20 μl of 0.1M Tris-acetate buffer (pH 6.0)/0.1M NaCl to perform a reaction at 25° C. for 30 minutes. After the reaction, an aliquot of the reaction solution (20 μl) was mixed with 2.5 ml of 85 mM glycine-carbonate buffer (pH 9.3) to measure the fluorescent strength (exciting wavelength: 365 nm, measuring wavelength: 450 nm). For the measurement of the fluorescent strength, reference was made to Biochemistry, Vol. 18, No. 13, pp. 2783-2787. A fluorescent strength, which was obtained when the reaction was performed in the same manner as described above except that the enzyme was not added, was used as control. An amount of the enzyme, which hydrolyzed 1 nmol of 4-MU-KDN per 1 minute at 25° C., was defined as 1 unit.
In order to investigate influences of, for example, inorganic ions and EDTA (ethylenediaminetetraacetic acid) on the activity of the enzyme of the present invention, these compounds were added to the reaction solution to perform the enzyme reaction in accordance with the 4-MU-KDN method.
The influence of the ionic strength on the enzyme of the present invention was investigated.
2,3-Dehydro-2-deoxy-N-acetylneuraminic acid is a specific inhibitor for known sialidase which cleaves the ketosidic linkage formed by N-acylneuraminic acid.

[2] = system: enzyme of the present invention (KDNase); assay: Substrate specificity: cleavage of ketosidic linkage, detected by thin layer chromatography; assay type: biochemical, Sphingobacterium mOL12-4s; design: key to Presence or absence of cleavage: Those in which KDN, Neu5Ac, or Neu5Gc was liberated are indicated by "+"; those in which KDN, Neu5Ac, or Neu5Gc was not liberated at all are indicated by "-"; settings: for Presence or absence of cleavage: substrate corresponding to 5 μg KDN, Neu5Ac or Neu5Gc, enzyme 80 milliunits, 25° C., 20 hours, pH 6.0, 0.1M NaCl
Description: The reactivity of the enzyme of the present invention was investigated for various KDN-containing complex carbohydrates and carbohydrates and sialic acid-containing complex carbohydrates and carbohydrates.
Each of the foregoing complex carbohydrates or carbohydrates containing KDN or sialic acid, which corresponded to 5 μg of KDN or N-acetylneuraminicacid (Neu5Ac) or N-glycolylneuraminic acid (Neu5Gc), was allowed to coexist with the enzyme of the present invention (80 milliunits) at 25° C. for 20 hours in 10 μl of 0.1M Tris-acetate buffer (pH 6.0) containing 0.1M NaCl.
The reaction solution was spotted on a plate for silica gel thin layer chromatography (produced by Merck), and developed for 7 hours with 1-propanol: 25% aqueous ammonia: water=6:1:2.5 (volume ratio). After the development, the plate was dried, on which 10% sulfuric acid ethanol solution was sprayed. The plate was heated at 120° C. to cause color development for the complex carbohydrates or carbohydrates and liberated KDN, Neu5Ac, or Neu5Gc. A control was provided, in which the reaction was performed without addition of the enzyme. Those in which KDN, Neu5Ac, or Neu5Gc was liberated are indicated by "+", and those in which KDN, Neu5Ac, or Neu5Gc was not liberated at all are indicated by "-".

[3] = system: enzyme of the present invention (KDNase); assay: Measurement of Michaelis constant and Vmax with 4-MU-KDN as substrate; assay type: biochemical, Sphingobacterium mOL12-4s; settings: 25° C.; for Vmax: pH 6.0
Description: The Michaelis constant (Km) and the maximum enzyme reaction velocity (Vmax) were determined on condition that 4-methylumbelliferyl KDN (4-MU-KDN) was used as a substrate for the enzyme of the present invention. The enzyme (32 milliunits) and the substrate (4-MU-KDN, 6.7 μM) were reacted at 25° C. in 216 μl of a reaction solution (0.1M Tris-acetate buffer (pH 6.0)/0.1M NaCl containing 0.1 mg/ml of bovine serum albumin). As a result, 4-methylumbelliferone (4-MU) was liberated linearly within 1 hour.
At this enzyme concentration, initial reaction velocities were measured by performing the reaction at 25° C. for 30 minutes in the same reaction solution as described above while variously changing the concentration of 4-MU-KDN in a range of 21 to 167 μM. A Lineweaver-Burkplot was obtained, and thus the Michaelis constant was calculated.

[4] = system: Sphingobacterium mOL12-4s; assay: Induction of KDNase in Sphingobacterium mOL12-4s; settings: for Number of cells: 0.1% (w/v) added substance in M9 liquid medium, 6.1×10^10 cells inoculated; for Number of cells / KDNase activity per cells / Number of cells, ratio to before addition (value in []) / KDNase activity: 25° C., 24 hours; for Number of cells, ratio to before addition (value in []): before addition = 1; for KDNase activity: supernatant of disrupted cells; for fold induction at 1000 µg/mL: 24 h
Description: Bacterial cells (4.0×10^8) of Sphingobacterium mOL12-4s were inoculated into 40 ml of M9 liquid medium containing 1% (w/v) casein hydrolysate (casamino acid, produced by Gibco) and 1% (w/v) glucose (Glc), and cultivated at 25° C. for 44 hours. Microbial cells (bacterial cells) at the growth phase were collected, and washed twice with M9 liquid medium. The microbial cells (6.1×10^10 cells) were inoculated into 2.0 ml of M9 liquid medium containing 0.1% (w/v) crude KDN-OS, KDN-OS, KDN, Neu5Ac, acid hydrolysate of colominic acid (oligo-Neu5Ac; Kitazume, S. et al., Anal. Biochem., 202, 25-34 (1992)), or Glc, and incubated at 25° C. for 24 hours to measure the number of growable cells and the KDNase activity. The number of cells was determined by diluting each incubated cell cultivation liquid to inoculate an obtained diluted solution into an LB agar medium plate, and counting a number of grown colonies (Kitajima, K. et al., J. Biol. Chem., 269, 21415-21419). In order to measure the KDNase activity of the cells, the cells were collected by means of centrifugation at 5,000 rpm or 1,500× g for 10 minutes. The collected cells were suspended in 0.5 ml of 100 mM Tris-acetate buffer (pH 6.0) containing 100 mM NaCl, and disrupted by means of ultrasonication (50 watts, 1 minute). The disrupted preparation was centrifuged at 10,000 rpm or 6,000× g for 10 minutes to subsequently obtain a supernatant for which the KDNase activity was measured. The numerical value in [] in Table 1 indicates a ratio provided that the activity before the addition is regarded as 1.

[5] = read-out: KDNase activity per cells, ratio to before addition (value in [])
[6] = read-out: KDNase activity, ratio to before addition (value in [])

With `CC(=O)N[C@H]1[C@H]([C@H](O)[C@H](O)CO)OC(C(=O)O)=C[C@@H]1O` [2,3-dehydro-2-deoxy-N-acetylneuraminic acid] the “inhibition of the enzyme” value ([1]; concentration not given) was “not inhibited”.

With `Cc1cc(=O)oc2cc(OC3(C(=O)O)C[C@H](O)[C@@H](O)[C@H]([C@H](O)[C@H](O)CO)O3)ccc12` (stereo partly drawn) [4-MU-KDN, 4-methylumbelliferyl KDN] the “action of the enzyme on the ketosidic linkage (in words)” value [2] was “acts on”, the “action of the enzyme on the ketosidic linkage (in words)” value ([2]; listed as 4-methylumbelliferyl KDN) was “can also act on” and the “Presence or absence of cleavage” value [2] was “+”. It also gave a Vmax [3] of 7.4 mM/min/mg protein, a Km ([3]; pH 6.0, 0.1M NaCl, 0.1 mg/ml BSA, Lineweaver-Burk plot, 21 to 167 μM substrate) of 19 µM and a Vmax ([3]; enzyme 32 milliunits in 216 μl) of 0.19 µM/min.

`CC(=O)NC1C(O)CC(Oc2ccc3c(C)cc(=O)oc3c2)(C(=O)O)OC1C(O)C(O)CO` (stereo not drawn) [4-MU-Neu5Ac, 4-Methylumbelliferyl Neu5Ac] was tested, and the “Presence or absence of cleavage” value [2] was “-”.

`O=C(O)CN(CCN(CC(=O)O)CC(=O)O)CC(=O)O` [EDTA, ethylenediaminetetraacetic acid] was tested, and the “effect on the activity of the enzyme” value [1] was “not affected”.

With `O=C[C@H](O)[C@@H](O)[C@H](O)[C@H](O)CO` [Glc, glucose] the Number of cells [4] was 1.7 × 10^12, the “KDNase activity per cells” value ([4]; 0.1% (w/v)) was 0.47 milliunit/10^10 cells and the “Number of cells, ratio to before addition (value in [])” value (from here on “Number of cells, ratio”) ([4]; 0.1% (w/v)) was 28. The KDNase activity ([4]; 0.1% (w/v)) was 80 milliunit, the fold induction at 1000 µg/mL [4, 5] was 0.14 and the fold induction at 1000 µg/mL [4, 6] was 4.

With `O=C(O)C1(O)CC(O)C(O)C(C(O)C(CO)OC2(C(=O)O)CC(O)C(O)C(C(O)C(O)CO)O2)O1` (stereo not drawn) [KDN dimer, KDNα2→8KDN] the “Presence or absence of cleavage” value [2] was “+”.

`O=C(O)C1(O)C[C@H](O)[C@@H](O)[C@H]([C@H](O)[C@H](O)CO)O1` (stereo partly drawn) [KDN, 3-deoxy-D-glycero-D-galacto-nonulosonic acid] was tested, and the “induction of KDNase (in words)” value ([4]; 0.1% (w/v)) was “induced KDNase”, the Number of cells [4] was 3.6 × 10^10 and the “KDNase activity per cells” value ([4]; 0.1% (w/v)) was 11 milliunit/10^10 cells. For the same molecule, the “Number of cells, ratio” value ([4]; 0.1% (w/v)) was 0.59, the KDNase activity ([4]; 0.1% (w/v)) was 38 milliunit and the fold induction at 1000 µg/mL [4, 5] was 3.3. The fold induction at 1000 µg/mL [4, 6] was 1.9, the “inhibition of the enzyme” value ([1]; 3 mM) was “inhibited” and the “inhibition of the enzyme” value ([1]; concentration not given) was “inhibited”.

With `[Cl-].[Na+]` [NaCl] the “enzyme activity at low ionic strength” value ([1]; 50 mM or less) was “extremely low” and the “concentration giving maximum enzyme activity (ionic strength)” value ([1]; FIG. 10) was 300 mM.

`CC(=O)NC1C(O)CC(OC(CO)C(O)C2OC(O)(C(=O)O)CC(O)C2NC(C)=O)(C(=O)O)OC1C(O)C(O)CO` (stereo not drawn) [Neu5Ac dimer, N-acetylneuraminic acid (Neu5Ac) dimer] was tested, and the “Presence or absence of cleavage” value [2] was “-”.

`CC(=O)N[C@H]1[C@H]([C@H](O)[C@H](O)CO)OC(O)(C(=O)O)C[C@@H]1O` (stereo partly drawn) [Neu5Ac, N-acetylneuraminic acid] was tested, and the Number of cells [4] was 2.5 × 10^10, the “KDNase activity per cells” value ([4]; 0.1% (w/v)) was 6.0 milliunit/10^10 cells and the “Number of cells, ratio” value ([4]; 0.1% (w/v)) was 0.41. It also gave a KDNase activity ([4]; 0.1% (w/v)) of 15 milliunit, a fold induction at 1000 µg/mL [4, 5] of 1.8 and a fold induction at 1000 µg/mL [4, 6] of 0.75.

With `CC(=O)NC(CO)C(OC1OC(CO)C(O)C(O)C1O)C(O)C(O)COC1(C(=O)O)CC(O)C(NC(C)=O)C(C(O)C(O)CO)O1` (stereo not drawn) [Neu5Acα2→6(Galβ1→3)GalNAcol] the “Presence or absence of cleavage” value [2] was “-”.

In the case of `O=C(CO)NC1C(O)CC(OC(CO)C(O)C2OC(O)(C(=O)O)CC(O)C2NC(=O)CO)(C(=O)O)OC1C(O)C(O)CO` (stereo not drawn) [Neu5Gc dimer, N-glycolylneuraminic acid (Neu5Gc) dimer], the “Presence or absence of cleavage” value [2] is reported as “-”.

With `[Ca+2]` [calcium ion] the “effect on the activity of the enzyme” value [1] was “not affected”.

`CC(=O)N[C@H]1[C@H]([C@H](O)[C@H](O)CO)OC(O)(C(=O)O)C[C@@H]1O` (stereo partly drawn) [free sialic acid, sialic acid] was tested, and the “inhibition of the enzyme” value ([1]; concentration not given) was “not inhibited”.

With `[Mg+2]` [magnesium ion] the “effect on the activity of the enzyme” value [1] was “not affected”.

In the case of `[Mn+2]` [manganese ion], the “effect on the activity of the enzyme” value [1] is reported as “not affected”.

In the case of `C[C@H](CCC(=O)O)[C@H]1CC[C@H]2[C@@H]3[C@H](O)C[C@@H]4C[C@H](O)CC[C@]4(C)[C@H]3C[C@H](O)[C@]12C` [sodium cholate], the enzyme activity maintained ([1]; 0.1%, 30 min) is reported as “about 90%” and the “enzyme activity in the presence of the additive” value ([1]; 0.5%) is reported as “substantially disappeared; also recorded: disappears”.

With “KDNα2→3Galβ1→4Glcβ1→Cer [KDN-containing ganglioside GM3]” the “Presence or absence of cleavage” value [2] was “+”.

In the case of “N-Acetylneuraminic acid lactose [Neu5Ac lactose]”, the “Presence or absence of cleavage” value [2] is reported as “-”.

For Triton X-100, the “inhibition of the enzyme” value ([1]; concentration not given) was “not inhibited; also recorded: does not inhibit”.

For colominic acid, the “Presence or absence of cleavage” value [2] was “-”.

With “fetal bovine serum fetuin: fetal bovine serum fetuin purchased from Sigma” the “Presence or absence of cleavage” value [2] was “-”.

“human transferrin: human transferrin purchased from Sigma” was tested, and the “Presence or absence of cleavage” value [2] was “-”.
